pKi: −log10 of the molar value.

In general, pKi refers to the negative decadic logarithm of the Ki, by convention in mol/L. A high value points to a small Ki. One may read the ED50 as the dose at which the effect has come halfway, by size or by number of responders. Lower therefore signals an effect at a small dose. As usually defined, the Ki is a dissociation constant, usually derived from enzyme kinetics or from competition with a known ligand. Read a low Ki as a stronger hold on the target.

One assay has as its target D(3) dopamine receptor (Rattus norvegicus, UniProt P19020). Briefly: biochemical.
In the next assay the target is T1, D(4) dopamine receptor (Homo sapiens, UniProt P21917).
T1 sequence (P21917 whole entry): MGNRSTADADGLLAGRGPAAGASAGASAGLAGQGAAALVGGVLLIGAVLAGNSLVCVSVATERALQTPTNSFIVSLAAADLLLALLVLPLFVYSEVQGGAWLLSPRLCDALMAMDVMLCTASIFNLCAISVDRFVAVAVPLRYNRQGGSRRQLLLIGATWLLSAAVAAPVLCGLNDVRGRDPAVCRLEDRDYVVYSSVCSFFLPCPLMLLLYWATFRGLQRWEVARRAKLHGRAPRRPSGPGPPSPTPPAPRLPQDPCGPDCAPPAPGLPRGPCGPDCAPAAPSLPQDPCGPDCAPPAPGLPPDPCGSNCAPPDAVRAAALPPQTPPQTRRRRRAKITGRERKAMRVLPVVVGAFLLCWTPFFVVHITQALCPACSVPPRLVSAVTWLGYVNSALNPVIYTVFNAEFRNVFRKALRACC
Briefly: biochemical.

Assay [1] relates to Mus musculus. Briefly: Compound was tested for inhibition of Apomorphine induced climbing in Mice on subcutaneous administration. In kind it is functional. Conditions: sc.
The next assay concerns the target Adrenergic receptor beta (Rattus norvegicus, UniProt P18090+P10608+P26255). Briefly: Compound was tested for the binding affinity against rat cortical Beta adrenergic receptor by Radio ligand [3H]dihydroalprenolol binding assay. In kind it is protein assay.
The species named for assay [2] is Mus musculus. Briefly: Compound was tested for inhibition of Apomorphine induced climbing in Mice. In kind it is functional.
Assay [3] deals with Mus musculus. Briefly: Inhibition of Apomorphine induced climbing in mice administered sc. The class given is functional.

Sequence of D(3) dopamine receptor (P19020 whole entry): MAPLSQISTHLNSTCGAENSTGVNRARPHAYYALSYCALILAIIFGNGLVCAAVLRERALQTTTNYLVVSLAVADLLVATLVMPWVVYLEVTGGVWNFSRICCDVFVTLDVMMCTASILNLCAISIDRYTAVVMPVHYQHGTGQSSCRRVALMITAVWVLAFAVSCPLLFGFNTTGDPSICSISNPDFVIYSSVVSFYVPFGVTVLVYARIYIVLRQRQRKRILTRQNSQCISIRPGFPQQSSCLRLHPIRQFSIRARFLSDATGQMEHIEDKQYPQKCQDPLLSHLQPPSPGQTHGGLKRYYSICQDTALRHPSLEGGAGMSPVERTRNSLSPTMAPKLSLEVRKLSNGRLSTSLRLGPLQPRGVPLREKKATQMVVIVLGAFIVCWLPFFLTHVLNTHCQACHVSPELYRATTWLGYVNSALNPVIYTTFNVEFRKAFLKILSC
Description for D(3) dopamine receptor: Binding affinity to rat Dopamine receptor D3 expressed in CHO cells was determined using [125 I] iodosulpride as radioligand

With `COc1cc(NC(=O)C(F)(F)F)c(Cl)cc1C(=O)N[C@H]1CCN(Cc2ccccc2)C1`, the pKi was 8.29 at D(3) dopamine receptor and 8.72 at D(4) dopamine receptor.

For the compound `COc1cc(NC(=O)C2CC2)c(Cl)cc1C(=O)N[C@H]1CCN(CC2CCCCC2)C1`, the negative-log Ki (pKi) on D(3) dopamine receptor was 8.43; at D(4) dopamine receptor, 8.48.

`COc1cc(NC(=O)C2CC2)c(Cl)cc1C(=O)N[C@H]1CCN(C2C3CC4CC(C3)CC2C4)C1` (stereo partly drawn): the pKi on D(3) dopamine receptor was 8.77; at D(4) dopamine receptor, 8.36. The compound also showed a median effective dose (ED50) in the assay with Mus musculus [1] greater than 10 mg/kg.

As to `CCC(=O)Nc1cc(OC)c(C(=O)N[C@H]2CCN(Cc3ccccc3)C2)cc1Cl`, the pKi on D(3) dopamine receptor was 8.23; on D(4) dopamine receptor, 8.82. It took a dose of 0.31 mg/kg to reach the 50% effect level in the assay on Mus musculus [1] (ED50).

Regarding `COc1cc(NC(=O)C2CC2)c(Cl)cc1C(=O)N[C@H]1CCN(C2CCCCCC2)C1`, the pKi on D(3) dopamine receptor was 8.82; at D(4) dopamine receptor it was 8.57.

Take `COc1cc(NC(=O)C2CCC2)c(Cl)cc1C(=O)N[C@@H]1CCN(Cc2ccccc2)C1`: the pKi at D(3) dopamine receptor is 7.00; on D(4) dopamine receptor it was 8.15.

On to `COc1cc(NC(=O)c2ccccc2)c(Cl)cc1C(=O)N[C@H]1CCN(Cc2ccccc2)C1`, for which the pKi on D(3) dopamine receptor is 6.70; on D(4) dopamine receptor, 7.06.

Regarding `CNc1cc(OC)c(C(=O)N[C@H]2CCN(C3C4CCCC3CCC4)C2)cc1Cl` (stereo partly drawn), the pKi at D(3) dopamine receptor is 9.62; on D(4) dopamine receptor, 9.17.

As for `COc1cc(NC(=O)C2CC2)c(Cl)cc1C(=O)N[C@H]1CCN(CCc2ccccc2)C1`, the values for the pKi at D(3) dopamine receptor and on D(4) dopamine receptor were 7.48 and 8.47, respectively.

`C=CC(=O)Nc1cc(OC)c(C(=O)N[C@H]2CCN(Cc3ccccc3)C2)cc1Cl`: the negative logarithm of the Ki (pKi) on D(3) dopamine receptor is 8.33; on D(4) dopamine receptor, 8.89.

`COc1cc(NC(=O)C2CCCC2)c(Cl)cc1C(=O)N[C@H]1CCN(Cc2ccccc2)C1`: the negative logarithm of the Ki (pKi) is 7.26 on D(3) dopamine receptor and 7.70 at D(4) dopamine receptor. The same compound yielded an ED50 in the assay with Mus musculus [1] of 0.28 mg/kg.

On to `COc1cc(NC(=O)C2CCC2)c(Cl)cc1C(=O)N[C@H]1CCN(Cc2ccccc2)C1`, for which the negative logarithm of the Ki (pKi) on D(3) dopamine receptor was 7.44; on D(4) dopamine receptor, 8.28. It took a dose of 0.14 mg/kg to reach the 50% effect level in the assay with Mus musculus [1] (ED50).

For the compound `O=C(CCCN1CCC(O)(c2ccc(Cl)cc2)CC1)c1ccc(F)cc1` [HALOPERIDOL], the Ki on Adrenergic receptor beta was greater than 10000 nM. The compound further displayed an ED50 in the assay filed under Mus musculus [2] of 0.041 mg/kg.

In the case of `COc1cc(NC(=O)C2CC2)c(Cl)cc1C(=O)N[C@H]1CCN(C2CCCCC2)C1`, the negative logarithm of the Ki (pKi) on D(3) dopamine receptor is 8.36; on D(4) dopamine receptor, 8.68. The same compound came in with an ED50 in the assay with Mus musculus [1] of 1.4 mg/kg.

In the case of `COc1cc(NC(=O)C2CCCCC2)c(Cl)cc1C(=O)N[C@H]1CCN(Cc2ccccc2)C1`, the pKi on D(3) dopamine receptor was 6.70; on D(4) dopamine receptor, 6.96.

For `COc1cc(NC(=O)C(C)C)c(Cl)cc1C(=O)N[C@H]1CCN(Cc2ccccc2)C1`, the pKi is 7.82 at D(3) dopamine receptor and 8.52 on D(4) dopamine receptor.

Take `COc1cc(NC(=O)C2CCCC2)c(Cl)cc1C(=O)N[C@@H]1CCN(Cc2ccccc2)C1`: the negative logarithm of the Ki (pKi) was 6.82 on D(3) dopamine receptor and 7.74 at D(4) dopamine receptor.

`COc1cc(N)c(Cl)cc1C(=O)N[C@@H]1CCN(Cc2ccccc2)C1` gave a pKi at D(3) dopamine receptor of 8.72.

On to `CNc1cc(OC)c(C(=O)N[C@H]2CCN(Cc3ccccc3)[C@H]2C)cc1Cl` [NEMONAPRIDE], for which the median effective dose (ED50) with Mus musculus [1] is 0.012 mg/kg.

In the case of `COc1cc(NC(=O)C2CC2)c(Cl)cc1C(=O)N[C@@H]1CCN(Cc2ccccc2)C1`, the pKi was 7.22 at D(3) dopamine receptor and 8.25 at D(4) dopamine receptor. In the assay on Mus musculus [1], this compound registered an ED50 of 0.45 mg/kg.

Take `COc1cc(N)c(Cl)cc1C(=O)N[C@H]1CCN(Cc2ccccc2)C1`: the negative logarithm of the Ki (pKi) on D(3) dopamine receptor was 9.24. The 50% effect level in the assay on Mus musculus [3] (ED50) was put at a dose of 0.071 mg/kg.

In the assay listed under Mus musculus [2], `CN1CCN(C2=Nc3cc(Cl)ccc3Nc3ccccc32)CC1` [CLOZAPINE] displayed an ED50 of 6.8 mg/kg.

Turning to `COc1cc(NC(=O)C2CC2)c(Cl)cc1C(=O)N[C@H]1CCN(C2C3CCCC2CCC3)C1` (stereo partly drawn), the pKi at D(3) dopamine receptor is 8.66; on D(4) dopamine receptor, 8.42. Also, in the assay with Mus musculus [1], the ED50 is greater than 10 mg/kg.

As for `COc1cc(NC(=O)C2CC2)c(Cl)cc1C(=O)N[C@H]1CCNC1`, the figures for the pKi at D(3) dopamine receptor and at D(4) dopamine receptor were 5.52 and 5.66, respectively. In the assay with Mus musculus [1], this compound came in with an ED50 greater than 30 mg/kg.

The values above are taken from ChEMBL document CHEMBL1129789, “Dopamine D3 and D4 receptor antagonists: synthesis and structure--activity relationships of (S)-(+)-N-(1-Benzyl-3-pyrrolidinyl)-5-chloro-4- [(cyclopropylcarbonyl) amino]-2-methoxybenzamide (YM-43611) and related compounds” (J Med Chem, 1996).
